Measured values: PubChem BioAssay AID179 (DTP/NCI, 2004)
Activity calls are given as the source filed them.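 The calls were made as follows: active = compounds giving half or more protection of infected cells from virus-caused growth loss, again on retest; inactive = the rest.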

Test system: CEM cells HIV-1 protection, formazan growth assay
Assay: NCI AIDS Antiviral Assay
Conditions: for IC50: measured here: growth of uninfected CEM cells
Method in brief: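 Human CEM cells, uninfected and HIV-1-infected, received five drug concentrations, and growth was read by soluble formazan assay. Compounds giving at least 50% protection were retested; reproducible 100% protection defined confirmed active.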

## O=C1NC(=O)C2C(=O)NC(=O)C1C2(c1ccccc1)c1ccc(Cl)cc1 (stereo unspecified)
  EC50: > 676 µM
  IC50: 468 µM

## CCOC(=O)/C(F)=C/c1cccc([N+](=O)[O-])c1
  EC50: > 151 µM
  IC50: > 151 µM

## Cc1ccnc(NC(=O)NC2CCCCC2)c1
  EC50: > 200 µM
  IC50: 145 µM

## O=C(O)CCc1cccc2c1oc1c(CCC(=O)O)cccc12
  EC50: > 794 µM
  IC50: 191 µM

## OC(C#CCN1CCCC1)(c1ccccc1)c1ccc(F)cc1.[C-]#[O+].[C-]#[O+].[C-]#[O+].[C-]#[O+].[C-]#[O+].[C-]#[O+].[Co].[Co] (stereo unspecified)
  EC50: > 200 µM
  IC50: 7.41 µM

## CCOC(OCC)c1ccc(N(C)C)cc1.[C-]#[O+].[C-]#[O+].[C-]#[O+].[Cr]
  EC50: > 20 µM
  IC50: 3.39 µM

## O=C(OCCN=c1c2ccccc2ccc2ccccc12)c1ccccc1
  EC50: > 200 µM
  IC50: 120 µM

## Nc1nc(Cl)cc(NCC2(CO)CC(OCc3ccccc3)C2)n1 (stereo unspecified)
  EC50: > 200 µM
  IC50: 6.03 µM

## O=C(O)C1CCC(c2ccc(Cl)cc2Cl)=N1 (stereo unspecified)
  EC50: > 200 µM
  IC50: > 200 µM

## Cc1ccc(-n2cnc(C(=N)C#N)c2N)cc1
  EC50: > 200 µM
  IC50: 123 µM

## CC1(C)O[C@@H](CP(c2ccc3ccccc3c2)c2ccc3ccccc3c2)[C@H](CP(c2ccc3ccccc3c2)c2ccc3ccccc3c2)O1
  EC50: > 200 µM
  IC50: 129 µM

## CCCCN1CC(=O)N2CCCC(c3ccccc3)N2C(=O)C1 (stereo unspecified)
  EC50: > 794 µM
  IC50: 347 µM

## O=C(c1ccccc1)N1CCN(C(=S)NC2CCCCC2)C1=S
  EC50: > 200 µM
  IC50: 12 µM

## CCN(CC)CCOc1ccc(C(O)(Cc2ccc(OC)cc2)c2ccccc2)cc1 (stereo unspecified)
  outcome: inactive

## O=C1C(Br)=C(C2=CC(=P(c3ccccc3)(c3ccccc3)c3ccccc3)C=C2)C(=O)C(Br)=C1C1=CC(=P(c2ccccc2)(c2ccccc2)c2ccccc2)C=C1
  EC50: > 50.1 µM
  IC50: > 50.1 µM

## CCCCCOCC(O)CO (stereo unspecified)
  outcome: inactive

## CN[C@@H]1C[C@H]2O[C@@](C)([C@@H]1OC)n1c3ccccc3c3c4c(c5c6ccccc6n2c5c31)C(=O)N[C@@H]4O
  EC50: > 38.9 µM
  IC50: 0.0309 µM

## NNC1=Nc2cc3c(cc2C(=O)N2C[C@H](O)CC12)OCO3 (stereo partly specified)
  EC50: > 200 µM
  IC50: > 200 µM

## O=C(Cc1nc2ccccc2[nH]1)N/N=C1\SCC(=O)N1c1ccc(Cl)cc1
  EC50: > 182 µM
  IC50: > 182 µM

## Cc1ccc(-n2c(=S)[nH]c3ccc(C)cc3c2=O)cc1
  EC50: > 25.7 µM
  IC50: > 25.7 µM

## ClC1c2ccccc2C2(c3ccccc3)OOC1(c1ccccc1)O2 (stereo unspecified)
  outcome: inactive

## O=C(NCCCCNCCCNC(=O)c1cc(-c2ccccc2)nc2ccccc12)c1cc(-c2ccccc2)nc2ccccc12
  EC50: > 20 µM
  IC50: 3.16 µM

## Cc1ccc(Nc2c3c(c(C#N)c4nc5ccccc5n24)CCCC3)cc1
  EC50: > 200 µM
  IC50: 10.7 µM

## S=C(NNc1nc2ccccc2n2cccc12)Nc1ccc(Br)cn1
  EC50: > 0.2 µM
  IC50: 0.0617 µM

## CC(C)C(Sc1nc(-c2ccccc2)c(-c2ccccc2)[nH]1)c1n[nH]c(=S)n1-c1ccccc1 (stereo unspecified)
  EC50: > 14.8 µM
  IC50: 7.08 µM

## CC(C)C(N)S(=O)(=O)O (stereo unspecified)
  EC50: > 200 µM
  IC50: > 200 µM

## O=C(N/C(=C\c1ccc(/C=C(\NC(=O)c2ccccc2)c2nc3cc(Cl)ccc3[nH]2)cc1)c1nc2cc(Cl)ccc2[nH]1)c1ccccc1
  outcome: inactive

## Cc1cccc(C(=O)c2cccc3ccccc23)c1C(=O)O
  outcome: inactive

## O=C(Nc1ccc(Cl)c(C(F)(F)F)c1)C(=O)c1c(O)c2ccccc2oc1=O
  EC50: > 229 µM
  IC50: 191 µM

## CC1(C)CC[C@]2(C)CC=C3[C@]4(C)CC[C@H]5C(C)(C)C(=O)CC[C@]5(C)[C@H]4CC[C@@]3(C)[C@H]2C1
  EC50: > 50.1 µM
  IC50: > 50.1 µM

## CNC(=O)c1ccc(NC(=O)Nc2cccc(C3=NCCN3)c2)cc1NC(=O)Nc1cccc(C2=NCCN2)c1
  EC50: 28.2 µM
  IC50: 178 µM

## O=C1C[C@@H](Sc2ccccc2)C2(OCCO2)C2ON3CCCC[C@H]3[C@H]12 (stereo partly specified)
  EC50: > 200 µM
  IC50: 1.82 µM

## CC(C)C1CO[C@]2(C)CCC(=O)N12 (stereo partly specified)
  EC50: > 1350 µM
  IC50: > 1350 µM

## CC(=O)N1C(OC(C)C)CC(C)N1c1ccccc1 (stereo unspecified)
  EC50: > 200 µM
  IC50: > 200 µM

## CC1=CC2CCC1(C)C/C2=C(/C)OC=O (stereo unspecified)
  outcome: inactive

## O=C(O)c1ccc(/C=N\N(CCO)C2=NCCN2)cc1
  EC50: > 200 µM
  IC50: > 200 µM

## COc1ccc(C2Oc3cc(OC)c(OC)cc3C2CCl)cc1OC (stereo unspecified)
  EC50: > 200 µM
  IC50: 107 µM

## O=C(O)[C@@H](NS(=O)(=O)c1ccc(F)cc1)c1ccccc1
  outcome: inactive

## CC(=O)OCCC(O[Si](c1ccccc1)(c1ccccc1)C(C)(C)C)C(C)(C)O (stereo unspecified)
  outcome: inactive

## CCC1(N=[N+]=[N-])C(=O)c2ccccc2N(c2ccccc2)C1=O (stereo unspecified)
  EC50: > 200 µM
  IC50: > 200 µM

## O=C(CNc1ccccc1[N+](=O)[O-])Nn1c(-c2ccccc2)nc2ccccc2c1=O
  EC50: > 200 µM
  IC50: 11.7 µM

## Cc1nn2c(nc1=O)sc1ccc3ccccc3c12
  EC50: > 83.2 µM
  IC50: > 83.2 µM

## CC1(C)C(=O)C(C)(C)C12SSC1(S2)C(C)(C)C(=O)C1(C)C
  EC50: > 200 µM
  IC50: 81.3 µM

## Cc1ccccc1C1OC1C(=O)c1ccccc1N (stereo unspecified)
  EC50: > 200 µM
  IC50: 46.8 µM

## Cc1c(CCCl)c(N=P(c2ccccc2)(c2ccccc2)c2ccccc2)n2c(nc3ccccc32)c1C#N
  EC50: > 200 µM
  IC50: > 200 µM

## COc1ccc(P2(=S)OCCOP(=S)(c3ccc(OC)cc3)S2)cc1 (stereo unspecified)
  EC50: > 117 µM
  IC50: 3.98 µM

## COC(=O)c1cccc(COC(=O)c2cc(C(=CCC[C@H]3CC[C@@]4(C)[C@@H](CC[C@@H]5[C@@H]4CC[C@]4(C)[C@@H]([C@H](C)CCCC(C)C)CC[C@@H]54)C3)c3cc(Cl)c(OCc4cccc(C(=O)OC)c4)c(C(=O)OCc4cccc(C(=O)OC)c4)c3)cc(Cl)c2OCc2cccc(C(=O)OC)c2)c1
  EC50: > 200 µM
  IC50: > 200 µM

## Cc1[nH]c2ccccc2c1C1Cc2ccccc2N1C(=O)/C=C/C=C/c1ccccc1 (stereo unspecified)
  EC50: > 9.33 µM
  IC50: > 9.33 µM

## Cc1ccc2c(c1)SCc1c-2[nH]c2ccccc12
  outcome: inactive

## CNCCSS(=O)(=O)CCNC
  EC50: 214 µM
  IC50: 457 µM

## O=C(CC(O)(C(F)(F)F)C(F)(F)F)C(c1ccccc1)C(O)(C(F)(F)F)C(F)(F)F (stereo unspecified)
  outcome: inactive

## Cc1ccccc1C(O)(c1nccn1C)c1nccn1C
  EC50: > 200 µM
  IC50: > 200 µM

## COc1ccc(-c2oc3cc(OC)c(OC)c(O)c3c(=O)c2O)cc1O
  EC50: > 200 µM
  IC50: 1.05 µM

## C=C1CCC2(C(C)=O)COC1(C)O2 (stereo unspecified)
  outcome: inactive

## N#C/C(=C\c1ccc(O)c(O)c1)C(=O)OCc1ccccc1COC(=O)/C(C#N)=C/c1ccc(O)c(O)c1
  EC50: > 200 µM
  IC50: 8.71 µM

## Oc1ccc(-c2nc(-c3ccccc3)c(-c3ccccc3)[nH]2)cc1
  EC50: > 200 µM
  IC50: 26.9 µM

## O=C(NCCCCCCCCNC(=O)c1cc(O)c(O)c(O)c1)c1cc(O)c(O)c(O)c1
  EC50: > 100 µM
  IC50: 13.8 µM

## Cn1c2c(c3ccccc31)CCN1OCC=C[C@@H](C(=O)O)[C@@H]21
  EC50: > 200 µM
  IC50: > 200 µM

## N#Cc1ccc(C(O)C(F)(F)c2nc3ccccc3o2)cc1 (stereo unspecified)
  EC50: > 200 µM
  IC50: > 200 µM

## CC(C)(C)OC[C@H](O)CC#N
  EC50: > 200 µM
  IC50: > 200 µM

## Cc1cccc(NC(=O)Nc2ccccc2Cl)n1
  EC50: > 200 µM
  IC50: > 200 µM
